Tested on: PDC KRAS tumor spheroids with HUVEC/MSC, viability
Assay: Anticancer human tumor 349418-098-R-PDC patient-derived lung adenocarcinoma cell line growth inhibition [KRAS2]
Settings: for viability, T/C: stronger effect = lower value
Text: Multicellular complex tumor spheroid response to RAS pathway inhibitors in combination with a targeted agents in patient-derived cell lines with oncogenic KRAS variants from multiple cancer types
A high-throughput screen of multi-cell type tumor spheroids was designed to identify active combinations of targeted small molecules and KRAS pathway inhibitors. Complex spheroids include a stromal component modeled by human endothelial cells (HUVEC) and fibroblasts modeled by human mesenchymal stem cells (MSCs). The concentration ranges selected for each drug and investigational agent were based upon clinically achievable concentrations if the clinical Cmax of the agent was known.
Compounds. The drugs and investigational agents: BI-3406 (NSC825286), BAY-293 (NSC824723), batoprotafib (TNO155; NSC825523), sotorasib (AMG 510; NSC818433), MRTX1257 (NSC819558), elimusertib (BAY 1895344; NSC800525), molibresib (GSK525762; NSC774829), temuterkib (LY3214996; NSC803410), venetoclax (NSC766270), alisertib (NSC759677), olaparib (NSC753686), talazoparib (NSC767125), erdafitinib (NSC781556), ipatasertib (NSC767898), cabozantinib (NSC761068), nintedanib (NSC756659), abemaciclib (NSC768073), docetaxel (NSC628503), trametinib (NSC758246), and sapanisertib (NSC764658) were obtained from the National Cancer Institute (NCI) Developmental Therapeutics Program Chemical Repository. The FDA-approved anticancer drug set is available from the Developmental Therapeutics Program. […] The stock solutions were prepared in dimethyl sulfoxide (DMSO, Sigma-Aldrich, St. Louis, MO, cat. D2650) at 800-fold the tested concentration and stored at -70 degrees C prior to their use. All drugs and investigational agents were tested over a range starting from a high concentration at or near the clinical Cmax and decreasing in half-log increments. If the clinical Cmax for an agent had not been determined, the highest concentration tested was 10 microM.
Cell Culture. All cells were maintained in an incubator at 37 degrees C and 5% CO2 with 95% humidity. The PDC lines were cultured according to standard operating procedures established by the NCI PDMR (https://pdmr.cancer.gov/sops/default.htm). Briefly, all PDCs were thawed and cultured in Matrigel-coated flasks prepared with a working solution of 1X Ham's F-12 nutrient mix, without supplementation (Invitrogen, Waltham, MA, cat. 11765054), 100 U/mL penicillin-streptomycin (Invitrogen, cat. 15140122), and 2.5% Matrigel (Corning Inc., Corning, NY, cat. 354248) for the first three passages. All PDCs were cultured in complete DMEM/F-12 media containing advanced DMEM/F-12 (Invitrogen, cat. 12634028), 4.9% defined fetal bovine serum, heat inactivated (HyClone Laboratories Inc., Logan, UT, cat. SH30070.03HI), 389 ng/mL hydrocortisone (Sigma-Aldrich, cat. H4001), 9.7 ng/mL human EGF recombinant protein (Invitrogen, cat. PHG0313), 23.4 microg/mL adenine (Sigma-Aldrich, cat. A2786), 97.3 U/mL penicillin-streptomycin (Invitrogen, cat. 15140122), 1.9 mM L-glutamine (Invitrogen, cat. 25030081), and 9.7 microM Y-27632 dihydrochloride (Tocris Bioscience, Bristol, United Kingdom, cat. 1254). The PDCs were cultured in complete DMEM/F12 media without 9.7 microM Y-27632 dihydrochloride for at least two passages prior to the screen. The established cell line HOP-62 was cultured in RPMI 1640 medium, HEPES (Invitrogen, cat. 22400105) with 10% defined fetal bovine serum (HyClone Laboratories Inc., cat. SH30070.03) and 2 mM L-glutamine (Invitrogen, cat. 25030081). The pooled donor HUVEC were cultured in endothelial cell growth medium 2 (PromoCell, Heidelberg, Germany, cat. C-22011) and the hMSC were cultured in mesenchymal stem cell growth medium 2 (PromoCell, cat. C-28009). For all experiments, HUVEC and hMSC were used at passages </=5, while the malignant cell lines were used at passages </=15. […]

[1] = curve of first compound, second compound 0.1 µM
[2] = curve of first compound, second compound 0.316 µM
[3] = curve of first compound, second compound 1 µM
[4] = curve of first compound, second compound 3.16 µM
[5] = curve of first compound, second compound 10 µM
[6] = second compound 0.1 µM, first compound 0.0316 µM
[7] = second compound 0.1 µM, first compound 0.1 µM
[8] = second compound 0.1 µM, first compound 0.316 µM
[9] = second compound 0.1 µM, first compound 1 µM
[10] = second compound 0.316 µM, first compound 0.0316 µM
[11] = second compound 0.316 µM, first compound 0.1 µM
[12] = second compound 0.316 µM, first compound 0.316 µM
[13] = second compound 0.316 µM, first compound 1 µM
[14] = second compound 1 µM, first compound 0.0316 µM
[15] = second compound 1 µM, first compound 0.1 µM
[16] = second compound 1 µM, first compound 0.316 µM
[17] = second compound 1 µM, first compound 1 µM
[18] = second compound 3.16 µM, first compound 0.0316 µM
[19] = second compound 3.16 µM, first compound 0.1 µM
[20] = second compound 3.16 µM, first compound 0.316 µM
[21] = second compound 3.16 µM, first compound 1 µM
[22] = second compound 10 µM, first compound 0.0316 µM
[23] = second compound 10 µM, first compound 0.1 µM
[24] = second compound 10 µM, first compound 0.316 µM
[25] = second compound 10 µM, first compound 1 µM
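Note: spheroids exposed to compounds for seven days before readout.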

`CC1(C)CCC(CN2CCN(c3ccc(C(=O)NS(=O)(=O)c4ccc(NCC5CCOCC5)c([N+](=O)[O-])c4)c(Oc4cnc5[nH]ccc5c4)c3)CC2)=C(c2ccc(Cl)cc2)C1` + CNCc1ccccc1-c1csc(C(C)Nc2nc(C)nc3cc(OC)c(OC)cc23)c1 gave an IC50 [1] of 1790 nM, an IC50 [2] of 1690 nM and an IC50 [3] of 1280 nM. For the same compound, the IC50 [4] was < 31.6 nM, the IC50 [5] was < 31.6 nM and the viability, T/C [6] was 101%. It also gave a viability, T/C [7] of 99.7%, a viability, T/C [8] of 94.6% and a viability, T/C [9] of 89.7%. For the same compound, the viability, T/C (second compound 0.1 µM, first compound 3.16 µM) was 11.3%, the viability, T/C (second compound 0.1 µM, first compound 10 µM) was 5.21% and the viability, T/C [10] was 97%. It also gave a viability, T/C [11] of 96.4%, a viability, T/C [12] of 87% and a viability, T/C [13] of 82.6%. For the same compound, the viability, T/C (second compound 0.316 µM, first compound 3.16 µM) was 11.5%, the viability, T/C (second compound 0.316 µM, first compound 10 µM) was 3.91% and the viability, T/C [14] was 74.1%. For the same compound, the viability, T/C [15] was 66.9%, the viability, T/C [16] was 72% and the viability, T/C [17] was 61.6%. The viability, T/C (second compound 1 µM, first compound 3.16 µM) was 6.96%, the viability, T/C (second compound 1 µM, first compound 10 µM) was 2.51% and the viability, T/C [18] was 0.13%. It also gave a viability, T/C [19] of 0.14%, a viability, T/C [20] of 0.11% and a viability, T/C [21] of 0.12%. The viability, T/C (second compound 3.16 µM, first compound 3.16 µM) was 0.12%, the viability, T/C (second compound 3.16 µM, first compound 10 µM) was 0.15% and the viability, T/C [22] was 0.11%. The viability, T/C [23] was 0.12%, the viability, T/C [24] was 0.1% and the viability, T/C [25] was 0.09%. It also gave a viability, T/C (second compound 10 µM, first compound 3.16 µM) of 0.08% and a viability, T/C (second compound 10 µM, first compound 10 µM) of 0.15%.

With `CNCc1ccccc1-c1csc(C(C)Nc2nc(C)nc3cc(OC)c(OC)cc23)c1` (stereo not drawn) the viability, T/C (compound 10 µM) was 0.1% [middle of 12 runs], the IC50 (compound alone, run of 07/19/2021) was 1.6 µM [middle of 5 runs] and the IC50 (compound alone, run of 07/26/2021) was 1.09 µM [middle of 6 runs].

In the case of `CCN1CCN(Cc2ccc(Nc3ncc(F)c(-c4cc(F)c5nc(C)n(C(C)C)c5c4)n3)nc2)CC1` + C=CC(=O)N1CCN(c2nc(=O)n(-c3c(C)ccnc3C(C)C)c3nc(-c4c(O)cccc4F)c(F)cc23)C(C)C1, the IC50 [1] is reported as 6.77 nM, the IC50 [2] is reported as 7.65 nM and the IC50 [3] is reported as 7.4 nM. For the same compound, the IC50 [4] was 4.46 nM, the IC50 [5] was < 3.16 nM and the viability, T/C (second compound 0.1 µM, first compound 0.00316 µM) was 71.8%. For the same compound, the viability, T/C (second compound 0.1 µM, first compound 0.01 µM) was 37.4%, the viability, T/C [6] was 21.8% and the viability, T/C [7] was 18%. It also gave a viability, T/C [8] of 15.4%, a viability, T/C [9] of 4.22% and a viability, T/C (second compound 0.316 µM, first compound 0.00316 µM) of 76.3%. The viability, T/C (second compound 0.316 µM, first compound 0.01 µM) was 41.9%, the viability, T/C [10] was 20.9% and the viability, T/C [11] was 19.5%. The viability, T/C [12] was 14.6%, the viability, T/C [13] was 4.52% and the viability, T/C (second compound 1 µM, first compound 0.00316 µM) was 75.9%. The viability, T/C (second compound 1 µM, first compound 0.01 µM) was 40.6%, the viability, T/C [14] was 21.7% and the viability, T/C [15] was 15%. It also gave a viability, T/C [16] of 15.7%, a viability, T/C [17] of 2.9% and a viability, T/C (second compound 3.16 µM, first compound 0.00316 µM) of 55.4%. For the same compound, the viability, T/C (second compound 3.16 µM, first compound 0.01 µM) was 39.6%, the viability, T/C [18] was 18.5% and the viability, T/C [19] was 18.4%. For the same compound, the viability, T/C [20] was 16.6%, the viability, T/C [21] was 2.48% and the viability, T/C (second compound 10 µM, first compound 0.00316 µM) was 25.3%. The viability, T/C (second compound 10 µM, first compound 0.01 µM) was 14.2%, the viability, T/C [22] was 12.8% and the viability, T/C [23] was 8.96%. For the same compound, the viability, T/C [24] was 8.17% and the viability, T/C [25] was 0.93%.

Reference: PubChem BioAssay AID1963866 (Molecular Pharmacology Branch, DTP, NCI, 2024)
